Measured values taken from patent US7459583B2, “Method for providing a cathartic effect” (Sucampo AG, priority 2001, dated 2008).

System: Male Wistar rats
Experiment: Enteropooling effect (intestinal fluid volume) in fasted rats
Format: in vivo, rat
Conditions: intestinal fluid volume 30 min after administration, dose yielding a 50% increase relative to vehicle control; for ED50: Rattus norvegicus, 0.5 h
Description: Male Wistar rats (Crj Wistar Rat, body weight: 180-200 g) were used. Animals were fasted for 24 hours with free access to water. 5 mL/kg of distilled water containing the compound 5, PGE1 or PGE2 was orally administrated (p.o.), or 2 mL/kg of physiological saline containing the compound 5 was injected intravenously (i.v.) to the animals. Thirty minutes after the administration, the animals were euthanized by cervical dislocation, and the abdominal cavity was opened surgically. The intestinal fluid was collected and its volume was measured. The dose of test substance yielding a 50% increase in intestinal fluid volume relative to the control group, which was received the vehicle only, was defined as the ED50 value.

CCCCC[C@H](O)/C=C/[C@H]1[C@H](O)CC(=O)[C@@H]1C/C=C\CCCC(=O)O [PGE2]
Enteropooling ED50 (p.o. in distilled water): 130 µg/kg

CCCCC[C@H](O)/C=C/[C@H]1[C@H](O)CC(=O)[C@@H]1CCCCCCC(=O)O [PGE1]
Enteropooling ED50 (p.o. in distilled water): 420 µg/kg

CCCCC(F)(F)C(O)CC[C@H]1[C@H](O)CC(=O)[C@@H]1CCCCCCC(=O)O (stereo partly shown) [Compound 5, 13,14-dihydro-15RS-hydroxy-16,16-difluoro-PGE1]
ED50 (iv, i.v. in physiological saline): 0.88 µg/kg
ED50 (po, p.o. in distilled water): 0.6 µg/kg
